Earlier results as cited in patent US20040005368A1, “Novel approach to weight loss comprising a modified protein composition that regulates blood sugar in conjunction with compositions that increase oxygen uptake and suppress appetite” (priority 2002, published 2004).

Settings: group of animals

In the case of `CN[C@@H](C)[C@H](O)c1ccccc1` [ephedrine], the “loss in body fat” value is listed as 42% and the “loss in body weight” value is listed as 14%.
For `Cn1c(=O)c2c(ncn2C)n(C)c1=O` [caffeine], the “loss in body weight” value is given as “no significant loss in body weight”.
